According to a melting point compilation (Tetko et al.; mined from patent text by program, amines drawn as free bases though some values may be those of a salt):

Row | SMILES | melting point [°C]
1 | CCCn1c(=O)c2c(NC)n[nH]c2n(Cc2ccncc2)c1=O | > 300
2 | Cc1cn(CC(O)(CC(C)(C)c2cccc3c2OCC3)C(F)(F)F)c(CO)c(C)c1=O (centres undefined) | 160 to 162
3 | O=S(=O)(c1ccc(Cl)cc1)C(c1cc(F)ccc1F)c1cc(CO)ncc1Br (centres undefined) | 172 to 173
4 | CCCCCCCCCCCCc1nnn[nH]1 | 68 to 70
5 | O=C1c2ccccc2-c2ccc(-c3nc(COc4ccc(CCCn5ccnc5)cc4)co3)cc21 | 153 to 154
6 | CC(Oc1ccc2c(c1)C(O)C(Cc1cccc(C(=O)O)c1)CO2)c1ccc2ccccc2n1 (centres undefined) | 70 to 73
7 | O=C(O)C(Oc1ccc(Cl)c(C(F)(F)F)c1)c1ccc(Cl)cc1 (centres undefined) | 132
8 | CCOc1ccc(CC(=O)O)cc1OCCCc1cn(-c2ccc(C(F)(F)F)cn2)nc1C(C)C | 116 to 117
9 | CCOC(=O)c1c(Cn2cnnc2)nc2cc3c(cc2c1-c1ccc(OC)c(OC)c1)OCCO3 | 237 to 239
10 | CC(=O)c1ccc(-c2nc(=O)c3ccccc3s2)cc1 | 198
11 | CCCCOC(=O)C(NC(=O)OC(C)(C)C)c1c[nH]c2ccccc12 (centres undefined) | 127 to 128
12 | C=CC(=O)NC(=O)CC(C)=O | 128 to 130
13 | CCC1(O)CC(=O)OCc2c1cc1n(c2=O)Cc2c-1nc1ccccc1c2-c1ccccc1 (centres undefined) | > 250
14 | O=C(Cn1cncc(NC(=O)OCc2ccccc2)c1=O)NC(Cc1ccccc1)C(=O)C(F)(F)F (centres undefined) | 132 to 134
15 | CCCc1nc(S)nc(O)c1Cc1ccc(-c2ccccc2C#N)cc1 | 191
16 | CCOC(=O)CCCn1c(C(=O)NCc2nnc(C)n2-c2sc(CC)cc2C(=O)c2ccccc2Cl)cc2cc(F)ccc21 | 127 to 128
17 | COc1ccc(-c2cnc3cc4cnn(CCO)c4cc3n2)cc1F | 192 to 195
18 | O=C(NNc1ccc(NC(=S)NCc2ccccc2)cc1)c1ccc(Cl)cc1 | 197 to 199
19 | COC(=O)C(=Cc1ccc(OC)c(OCCc2ccccc2)c1)C(=O)OC | 105 to 106
20 | O=C(Oc1ccc(/C=c2\[nH]c(=O)/c(=C/c3ccccc3)[nH]c2=O)nc1)c1ccncc1 | 262 to 264
21 | Cc1sc(Cc2ccc(Br)cc2)c(C(=O)c2ccc(OS(=O)(=O)c3cnn(C)c3)c(C3CCCC3)c2)c1C | 55 to 60
22 | O=C(CCCCCN1CCN(c2cccc(C(F)(F)F)c2)CC1)N1Cc2ccc(OCCN3CCCCC3)cc2C1 | 88

Row | SMILES | melting point [°C]
23 | O=C(O)Cc1cc(Br)c(S(=O)(=O)c2ccc(O)c(C3CCCC3)c2)c(Br)c1 | 171 to 174
24 | Cc1cccc(C(=O)NC(Nc2c(Nc3cccnc3)c(=O)c2=O)C(C)(C)C)c1 (centres undefined) | 236 to 237
25 | CC1=CC(=O)C(C)=C(CCC(C)(C)COc2ccc(CC3SC(=O)NC3=O)cc2)C1=O (centres undefined) | 173
26 | Fc1ccc(Nc2ncnc3cnc(N4CCC(N5CCCC5)CC4)nc23)cc1Cl | 202 to 204
27 | O=c1cc(-c2ccccc2)[nH]c2c(O)c(O)ccc12 | 270 to 274
28 | Cc1ccc(C)c(OCCCC(C)(C)C(=O)Nc2cccc(C3=NCCCO3)c2)c1 | 114 to 115
29 | CNC(=O)NS(=O)(=O)c1ccccc1OC(Cl)=CCl | 225 to 226
30 | CN1/C(=C\C(=S)NC(=O)c2ccccc2)C(C)(C)c2ccccc21 | 108 to 110
31 | N=C(NCc1ccn(C2=CC3=C(CC2)CCc2[nH]c(=O)c(=O)n(CC(=O)O)c23)c1)Nc1ccccc1 | > 225
32 | COCCCNS(=O)(=O)NC(=O)OCc1ccc(OCCOC)cc1Oc1ncc(C(F)(F)F)cc1Cl | 149 to 150
33 | O=C(O)CCc1cccc(C(O)(C(F)(F)F)C(F)(F)F)c1 | 112 to 113
34 | CN1C(=O)C2(COc3cc4c(cc32)OCCO4)c2c(NC(=O)NC3CCCC3)cccc21 (centres undefined) | 133 to 135
35 | CC(C)Cc1ccc(C(F)C(=O)O)cc1 (centres undefined) | 64 to 66
36 | Cc1nc(-c2cccc(C(=O)Nc3ccc(Cl)cc3)c2)sc1C(=O)O | 246 to 248
37 | Cc1cccc(-c2nc(-c3ccc(F)cc3)sc2-c2ccnc(N)c2)c1 | 160 to 162
38 | CCC(CC)C(c1ccnn1-c1ccccc1)N(C)S(=O)(=O)c1ccc(Cl)c(Cl)c1 (centres undefined) | 102 to 104
39 | O=C(O)Cc1cn2ccccc2n1 | 205 to 208
40 | CCc1ccc(CCOc2ccc(NC(=O)N(C)OC)cc2)nc1 | 90.5 to 92
41 | O=C(O)C1CC(F)(F)CC1C(=O)O (centres undefined) | 128
42 | COCC[C@H]1CN(C2=Nc3ccccc3Nc3ccc(C(F)(F)F)cc32)CCN1C | 48 to 56
43 | Cc1ccc(NS(=O)(=O)c2cccs2)c2[nH]c(C(=O)NCCSC(c3ccccc3)(c3ccccc3)c3ccccc3)cc12 | 241 to 242
44 | COC(=O)C(NS(=O)(=O)c1ccc(-c2ccc(NC(=O)c3oc4cccc(C)c4c3C)cc2)cc1)C(C)C (centres undefined) | 199 to 200

Row | SMILES | melting point [°C]
45 | O=C(Nc1cc(-c2ccnc3c(C(=O)c4cccs4)cnn23)ccc1F)c1ccccc1F | 214 to 216
46 | Cc1cc(-c2cccs2)ccc1C(=O)c1cccc2c1Nc1ncccc1CN2 | 118 to 120
47 | CN(c1ccc(Cl)cc1)S(=O)(=O)c1cc(C(=O)Nc2ccc(S(C)=O)cc2)ccn1 (centres undefined) | 172 to 174
48 | CN(C)Cc1c[nH]c2c(C(=O)c3ccccc3)cccc12 | 111 to 114
49 | CCCSc1nc(NC2CC2c2ccc(OC)c(C)c2)c2nnn(C3CC(O)C(O)C3O)c2n1 (centres undefined) | 135 to 136
50 | CSc1ccc(-c2nnc(Cl)cc2-c2ccccc2)cc1 | 158
51 | c1ccc(-c2ccc3nc(-c4ccccc4)oc3n2)cc1 | 151 to 152
52 | CC(=O)Oc1cnccc1CCCOc1cccnc1Oc1cccc(Br)c1 | 110 to 112
53 | CCC(=O)NCC1CC1c1cccc2nn(CC)cc12 (centres undefined) | 114 to 115
54 | CCCCCCCCCCCCCCCCCCS(=O)c1cc2ccccc2c(N)c1O (centres undefined) | 95 to 97
55 | CC(=O)N1C[C@H]2CCC[C@H]2OC1=O (relative stereo) | 80 to 83
56 | COc1cc(C=Cc2cc(=O)n3cccc(C)c3n2)cc(OC)c1OC | 208 to 210
57 | CCC1c2[nH]c3ccccc3c2CC(CO)N1C(=S)SC (centres undefined) | 170 to 172
58 | c1ccc(-c2nc(CCCCCCc3nnn[nH]3)oc2-c2ccccc2)cc1 | 132
59 | COc1cc(OCc2ccccn2)ccc1/C=C/c1cc(/C=C/c2ccc3nccnc3c2)[nH]n1 | 205 to 213
60 | CCN(CC)C(=O)COc1cccc(-n2nc(-c3ccc(F)cc3)c3cccnc32)c1 | 102 to 105
61 | FC(F)(F)c1cccc(OC(c2ccc(Cl)cc2)c2nnn[nH]2)c1 (centres undefined) | 124 to 126
62 | CC12C=CC(=O)C=C1CCC1C2CCC2(C)C(=O)COC12 (centres undefined) | 181 to 185
63 | CC12CCC(=O)C([N+](=O)[O-])=C1CCC1C2CCC2(C)C(C(O)CO)CCC12 (centres undefined) | 183 to 185
64 | CCCCCCCC1CCC(C(C#N)Cc2ccc(Br)cc2)CC1 (centres undefined) | 60 to 62
65 | Cc1ccc(S(=O)(=O)N2CCC[C@H]2C(=O)N[C@@H](Cc2ccccc2)C(=O)NOCc2ccccc2)cc1 | 127 to 130
66 | O=C(O)CCCC(=O)N[C@@H](Cc1ccccc1)C(=O)NCCCCNc1ncccn1 | 186

Other lines, results leading:

Row | melting point [°C] | SMILES
67 | 152 | Cc1cc([N+](=O)[O-])ccc1N=C1SC(=O)CN1CC(C)C
68 | 230 to 232 | Cc1ccc(-c2cc(N3CCC(C(N)=O)CC3)c3ccccc3n2)cc1
69 | 96 to 97 | Nc1ccc(S(=O)(=O)NCCCN2CCOCC2)cc1
70 | 138 to 139 | N=C1SCCN1c1ccc(N)cc1[N+](=O)[O-]
71 | 100 to 101 | CCN1CCN(c2cccc3ccc(-c4cccc(NS(C)(=O)=O)c4)cc23)CC1
72 | 206 | CC1(c2ccccc2)CCC(=O)C=C1C(=O)O (racemic)
73 | 78 to 80 | COC(=O)c1cc([N+](=O)[O-])c(F)cc1F
74 | 132 | CC(C)(C)OC(=O)N1CCC(Nc2nc3ccccc3n2Cc2cnc(CO)o2)CC1
75 | 90 | O=Cc1cccc(C=Cc2ccccc2)c1
76 | 78 to 80 | O=c1cccccc1N1CCN(Cc2ccccc2)CC1
77 | 174 to 175 | CN(c1cccc2cc(C3=NCC(C(C)(C)O)S3)[nH]c12)S(=O)(=O)c1cccs1 (centres undefined)
78 | 192 to 195 | Cn1c(CC(=O)O)ccc1C(=O)c1ccc([N+](=O)[O-])cc1
79 | 246 to 248 | NCc1cccnc1C1CCN(c2cc3c(cc2F)c(=O)c(C(=O)O)cn3C2CC2)C1 (centres undefined)
80 | 139 to 142 | CN1C(=O)[C@](C)(C(=O)O)Oc2ccccc21
81 | 69 to 71 | CCC1(c2cccc(OC)c2)CCCC(=O)N(C)C1 (centres undefined)
82 | 180 to 181 | Cn1nc2cccc(O)c2c1S(N)(=O)=O
83 | 168 to 170 | Nc1cc(N2CCCC2=O)c(Cl)cc1Cl

Row | melting point [°C] | SMILES
84 | 211 to 212 | NCc1ccc(N2CC(C(=O)O)OC2=O)cc1 (centres undefined)
85 | 142 | CCOC(=O)C1=C(N)NC(N)=C(C(=O)OCC)C1c1ccccc1[N+](=O)[O-]
86 | 70 | C=CCc1cc(C#N)ccc1O
87 | 108 | O=S(=O)(c1ccc(F)cc1)N1CCCC1c1ccccc1F (racemic)
88 | 205 to 206 | NCc1cc(Cl)c(N=C2NCCN2)c(Cl)c1
89 | 97 to 98 | CC1(C)NCCc2c1oc1cc(I)ccc21
90 | 136 to 138 | COC1(c2cc(F)cc(OCc3ccc4c(c3)CCC(=S)N4C)c2)CCOCC1
91 | 159 to 161 | O=C1Nc2ccc(C3CC4CCC3C4)cc2C12OCCO2 (centres undefined)
92 | 163 to 167 | Nc1cc(Cl)cc(Cl)c1C(=O)NCc1ccccc1Br
93 | 242 to 243 | O=C(O)c1cnn2c(C3CC3)cc(-c3ccc(Cl)cc3)nc12
94 | 140 | CNC(=O)n1sc(SCc2ccc(Cl)cc2)nc1=O
95 | 119 to 121 | O=C1CCC(c2ccccc2F)=NN1
96 | 139 to 142 | OC1CCN(c2nnc(Cl)c3ccccc23)CC1
97 | 186 to 187 | CCOC(=O)NNc1cc(C)c(-c2cccc([N+](=O)[O-])c2)nn1
98 | 97 to 105 | OC1CSC(Oc2cccc(-c3cc(Cl)ccn3)c2)C(O)C1O (centres undefined)
99 | 121 to 122 | Cc1ccccc1CC1CNC(=O)O1 (centres undefined)
